Measurements from patent US11072628B2, “Nucleoside analogues for the treatment of parasitic infections” (UNIVERSITEIT GENT, priority 2017, dated 2021).
Like-named read-outs stand apart in the source and are kept apart here.

How the values were obtained:
T. brucei Squib 427 = test: In vitro drug susceptibility, T. brucei Squib 427 (resazurin); format: cell-based, Trypanosoma brucei brucei; conditions: Trypanosoma brucei
Protocol: (§1) All trypanosome strains were cultured in the standard HMI-9 medium supplemented with 10% fetal bovine serum (FBS) at 37° C. in a 5% CO2 atmosphere.

[1] = system: T. b. rhodesiense STIB-900; test: In vitro drug susceptibility, T. b. rhodesiense STIB-900 (resazurin); format: cell-based, Trypanosoma brucei rhodesiense; conditions: Trypanosoma brucei, RHODESIENSE
Protocol: as §1

[2] = Cytotoxicity against MRC-5 fibroblasts; conditions: human, MRC-5 fibroblasts, cytotoxicity
Protocol: Cytotoxicity was assayed against MRC-5 fibroblasts. Results are depicted in Tables 4 and 5.

[3] = system: T. cruzi Tulahuen CL2 β galactosidase strain; test: T. cruzi Tulahuen CL2 β galactosidase strain on MRC-5SV2 cells (CPRG); format: cell-based, Trypanosoma cruzi; conditions: Trypanosoma cruzi, TULAHUEN, MRC-5 SV2
Protocol: All cultures and assays were conducted at 37° C./5% CO2. […] The results were expressed as % reduction in parasite burdens compared to control wells from which an EC50 was calculated.

[4] = system: T. vaginalis trophozoites (metronidazole susceptible G3 strain); test: Trichomonas vaginalis in vitro assay; format: cell-based; conditions: Trichomonas vaginalis, average of 2-5 independent replicates
Protocol: T. vaginalis trophozoites (metronidazole susceptible G3 strain) were grown in vitro in modified Diamond's media (MDM) with 10% heat inactivated horse serum (HIHS) acquired from Gibco Life Technologies. After medium preparation, the pH was adjusted to 6.3-6.4 employing 1.0 M aq. HCl. Parasites cultures were passaged every day by taking 1 mL of cell culture into a 25 mL bottle of fresh media to ensure the cells were kept at the appropriate concentration of ˜2×10^6 cells/mL. The culture flasks were filled completely and tightly capped to provide the cells with an anaerobic environment. The parasites were maintained in incubation at 37° C. When culturing in multiwell plates, the plates were sealed with Nescofilm® and inserted in BD GasPak EZ pouches (BD Diagnostics, UK) in order to create anaerobic conditions. Assays were performed with 5×10^4 trophozoites/well (100 μL) to which compound dilutions were added (100 μL). Outside wells of columns and rows were filled with 200 μL of sterile water. Plates were sealed with Nescofilm® and incubated under anaerobic conditions as described above. After 24 h, 30 μL of assay dye solution (resorufin) was added, and incubated for 1-2 h before being read using Fluostar Optima (BMG Labtech, UK) at an excitation wavelength of 544 nm and an emission wavelength of 620 nm.

[5] = read-out: T. brucei brucei EC50, Table 1, average of 2-4 independent determinations
[6] = Table 2, average of 2-3 independent replicates

SMILES: CCc1cn([C@@H]2O[C@H](CO)C[C@H]2O)c2ncnc(N)c12 [FH9613, 4-amino-5-ethyl-N7-(3′-deoxy-β-D-ribofuranosyl)-pyrrolo[2,3-d]pyrimidine]
- EC50 (T. brucei Squib 427; [5]): 1.78 µM
- EC50 ([1]; read-out: T. brucei rhod. EC50): 0.65 µM
- EC50 ([2]; MRC-5 EC50, Table 1): > 64 µM
- EC50 ([2]; MRC-5 EC50, Table 2): > 64 µM
- EC50 [3, 6]: 19.7 µM
- melting point: 200 °C

SMILES: Nc1ncnc2c1c(-c1cccc(Cl)c1)cn2[C@@H]1O[C@H](CO)C[C@H]1O [FH10641, 4-amino-5-(3-chlorophenyl)-N7-(3′-deoxy-β-D-ribofuranosyl)-pyrrolo[2,3-d]pyrimidine]
- EC50 (T. brucei Squib 427; [5]): 7.13 µM
- EC50 ([1]; read-out: T. brucei rhod. EC50): 0.55 µM
- EC50 ([2]; MRC-5 EC50, Table 1): 36.1 µM
- EC50 ([2]; MRC-5 EC50, Table 2): 36.1 µM
- EC50 [3, 6]: 0.97 µM
- melting point: 130 °C

SMILES: Nc1ncnc2c1c(-c1cc(Cl)cc(Cl)c1)cn2[C@@H]1O[C@H](CO)C[C@H]1O [FH10642, 4-amino-5-(3,5-dichlorophenyl)-N7-(3′-deoxy-β-D-ribofuranosyl)-pyrrolo[2,3-d]pyrimidine]
- EC50 (T. brucei Squib 427; [5]): 7.7 µM
- EC50 ([1]; read-out: T. brucei rhod. EC50): 5.45 µM
- EC50 ([2]; MRC-5 EC50, Table 1): 30.2 µM
- EC50 ([2]; MRC-5 EC50, Table 2): 30.2 µM
- EC50 [3, 6]: 0.55 µM
- melting point: 211 °C

SMILES: Cc1ccc(-c2cn([C@@H]3O[C@H](CO)C[C@H]3O)c3ncnc(N)c23)cc1Cl [FH10644, 4-amino-5-(3-chloro-4-methylphenyl)-N7-(3′-deoxy-β-D-ribofuranosyl)-pyrrolo[2,3-d]pyrimidine]
- EC50 (T. brucei Squib 427; [5]): 4.74 µM
- EC50 ([1]; read-out: T. brucei rhod. EC50): 5.99 µM
- EC50 ([2]; MRC-5 EC50, Table 1): 17.9 µM
- EC50 ([2]; MRC-5 EC50, Table 2): 17.9 µM
- EC50 [3, 6]: 0.27 µM
- melting point: 135 °C

SMILES: CCc1ccc(-c2cn([C@@H]3O[C@H](CO)C[C@H]3O)c3ncnc(N)c23)cc1 [FH10647]
- EC50 (T. brucei Squib 427; [5]): 7.58 µM
- EC50 ([1]; read-out: T. brucei rhod. EC50): 1.5 µM
- EC50 ([2]; MRC-5 EC50, Table 1): 18.4 µM
- EC50 ([2]; MRC-5 EC50, Table 2): 18.4 µM
- EC50 [3, 6]: 1.04 µM
- melting point: 114 °C

SMILES: Cc1cc(-c2cn([C@@H]3O[C@H](CO)C[C@H]3O)c3ncnc(N)c23)ccc1Cl [FH10648, 4-amino-5-(3-methyl-4-chlorophenyl)-N7-(3′-deoxy-β-D-ribofuranosyl)-pyrrolo[2,3-d]pyrimidine]
- EC50 (T. brucei Squib 427; [5]): 6.4 µM
- EC50 ([1]; read-out: T. brucei rhod. EC50): 2.09 µM
- EC50 ([2]; MRC-5 EC50, Table 1): 16.7 µM
- EC50 ([2]; MRC-5 EC50, Table 2): 16.7 µM
- EC50 [3, 6]: 0.21 µM
- melting point: 125 °C

SMILES: COc1cc(-c2cn([C@@H]3O[C@H](CO)C[C@H]3O)c3ncnc(N)c23)ccc1Cl [FH10649, 4-amino-5-(3-methoxy-4-chlorophenyl)-N7-(3′-deoxy-β-D-ribofuranosyl)-pyrrolo[2,3-d]pyrimidine]
- EC50 (T. brucei Squib 427; [5]): 2.01 µM
- EC50 ([1]; read-out: T. brucei rhod. EC50): 0.54 µM
- EC50 ([2]; MRC-5 EC50, Table 1): 17.2 µM
- EC50 ([2]; MRC-5 EC50, Table 2): 17.2 µM
- EC50 [3, 6]: 0.06 µM
- melting point: 208 °C

SMILES: Nc1ncnc2c1c(/C=C/c1ccccc1)cn2[C@@H]1O[C@H](CO)C[C@H]1O [FH10660, 4-amino-5-(E-styryl)-N7-(3′-deoxy-β-D-ribfuranosyl)-pyrrolo[2,3-d]pyrimidine]
- EC50 (T. brucei Squib 427; [5]): 1.76 µM
- EC50 ([1]; read-out: T. brucei rhod. EC50): 0.17 µM
- EC50 ([2]; MRC-5 EC50, Table 1): 49.4 µM
- EC50 ([2]; MRC-5 EC50, Table 2): 49.4 µM
- EC50 [3, 6]: 6.28 µM
- melting point: 170 °C

SMILES: Nc1ncnc2c1c(CCc1ccccc1)cn2[C@@H]1O[C@H](CO)C[C@H]1O [FH10661, 4-amino-5-(phenylethyl)-N7-(3′-deoxy-β-D-ribfuranosyl)-pyrrolo[2,3-d]pyrimidine]
- EC50 (T. brucei Squib 427; [5]): 8.26 µM
- EC50 ([1]; read-out: T. brucei rhod. EC50): 0.67 µM
- EC50 ([2]; MRC-5 EC50, Table 1): > 64 µM
- EC50 ([2]; MRC-5 EC50, Table 2): > 64 µM
- EC50 [3, 6]: > 64 µM
- melting point: 76 °C

SMILES: Nc1ncnc2c1c(-c1ccc(Cl)c(F)c1)cn2[C@@H]1O[C@H](CO)C[C@H]1O [FH10683, 4-amino-5-(3-fluoro-4-chlorophenyl)-N7-(3′-deoxy-β-D-ribofuranosyl)-pyrrolo[2,3-d]pyrimidine]
- EC50 ([2]; MRC-5 EC50, Table 2): 18.6 µM
- EC50 [3, 6]: 0.07 µM
- melting point: 206 °C

SMILES: Nc1ncnc2c1c(-c1ccc(Cl)cn1)cn2[C@@H]1O[C@H](CO)[C@@H](O)[C@H]1O [MS1039, 4-amino-5-(5-chloro-pyrid-2-yl)-N7-(β-D-ribofuranosyl)-pyrrolo[2,3-d]pyrimidine]
- EC50 (T. brucei Squib 427; read-out: T.b. brucei EC50, Table 4, average of 2-6 independent determinations): 8.97 µM
- EC50 ([1]; read-out: T.b. rhod. EC50): 4.6 µM
- EC50 ([2]; MRC-5 EC50, Table 4): > 64 µM
- EC50 ([2]; MRC-5 EC50, Table 5): > 64 µM
- EC50 ([3]; Table 5, average of 2-4 independent replicates): 2.39 µM
- EC50 ([4]; Table 6): 0.86 µM

SMILES: Cc1ncc([N+](=O)[O-])n1CCO [Metronidazole, reference compound]
- EC50 ([4]; Table 3): 0.53 µM
